We go through ten compounds from patent US6699880B1 (priority 1999, dated 2004).

The assay addresses T1, human m4 receptor (Homo sapiens, UniProt P08173).
T1 construct: expressed in transfected cells
T1 sequence (P08173 1-479): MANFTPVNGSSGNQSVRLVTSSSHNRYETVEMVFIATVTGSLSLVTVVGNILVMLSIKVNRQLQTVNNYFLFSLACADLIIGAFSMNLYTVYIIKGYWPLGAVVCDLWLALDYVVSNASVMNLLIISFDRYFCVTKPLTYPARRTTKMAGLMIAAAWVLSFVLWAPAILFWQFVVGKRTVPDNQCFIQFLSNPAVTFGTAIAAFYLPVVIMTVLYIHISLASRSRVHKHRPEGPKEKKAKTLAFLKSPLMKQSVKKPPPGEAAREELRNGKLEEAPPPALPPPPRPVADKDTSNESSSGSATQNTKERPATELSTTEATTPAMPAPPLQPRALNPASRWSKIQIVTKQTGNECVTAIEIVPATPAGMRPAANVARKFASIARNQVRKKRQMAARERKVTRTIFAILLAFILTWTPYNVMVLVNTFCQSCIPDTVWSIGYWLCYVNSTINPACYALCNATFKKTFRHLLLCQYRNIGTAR
Format: cell-based. To be noted: 0.01 µM.

As for `COC(=O)N1CCC(N2CCC(n3c(=O)n(C)c4ccccc43)CC2)CC1` [Example 4, 1-[1-(1-methoxycarbonylpiperidin-4-yl)-piperidin-4-yl]-3-methyl-1,3-dihydro-2H-benzimidazol-2-one], the “Agonist Activity (%) (M4 Receptors-Stimulating Activity)” value (from here on “Agonist Activity (%)”) was 96%. For `COC(=O)Cn1c(=O)n(C2CCN(C3CCN(C(=O)OC)CC3)CC2)c2ccccc21` [Example 6, 1-[1-(1-methoxycarbonylpiperidin-4-yl)-piperidin-4-yl]-3-(methoxycarbonylmethyl)-1,3-dihydro-2H-benzimidazol-2-one], the “Agonist Activity (%)” value amounted to 92%.

For the compound `CCCCn1c(=O)n(C2CCN(C3CCN(C(=O)OC)CC3)CC2)c2ccccc21` [Example 3, 1-[1-(1-methoxycarbonylpiperidin-4-yl)-piperidin-4-yl]-3-n-butyl-1,3-dihydro-2H-benzimidazol-2-one], the “Agonist Activity (%)” value turned out to be 101%. In the case of `CCOC(=O)N1CCC(N2CCC(n3c(=O)n(S(C)(=O)=O)c4ccccc43)CC2)CC1` [Example 20, 1-[1-(1-ethoxycarbonylpiperidin-4-yl)-piperidin-4-yl]-3-(methylsulfonyl)-1,3-dihydro-2H-benzimidazol-2-one] it was 94%. On to `COC(=O)N1CCC(N2CCC(n3c(=O)n(CC(C)=O)c4ccccc43)CC2)CC1` [Example 7, 1-[1-(1-methoxycarbonylpiperidin-4-yl)-piperidin-4-yl]-3-(2-oxopropyl)-1,3-dihydro-2H-benzimidazol-2-one], for which the “Agonist Activity (%)” value came to 97%.

`C#CCn1c(=O)n(C2CCN(C3CCN(C(=O)OC)CC3)CC2)c2ccccc21` [Example 1, 1-[1-(1-methoxycarbonylpiperidin-4-yl)-piperidin-4-yl]-3-(2-propinyl)-1,3-dihydro-2H-benzimidazol-2-one]: the “Agonist Activity (%)” value came out at 91%.

`COC(=O)N1CCC(N2CCC(n3c(=O)n(CC(F)(F)F)c4ccccc43)CC2)CC1` [Example 5, 1-[1-(1-methoxycarbonylpiperidin-4-yl)-piperidin-4-yl]-3-(2,2,2-trifluoroethyl)-1,3-dihydro-2H-benzimidazol-2-one]: the “Agonist Activity (%)” value is on record as 90%. For `COC(=O)N1CCC(N2CCC(n3c(=O)n(CCN)c4ccccc43)CC2)CC1` [Example 8, 1-[1-(1-methoxycarbonylpiperidin-4-yl)-piperidin-4-yl]-3-(2-aminoethyl)-1,3-dihydro-2H-benzimidazol-2-one], the “Agonist Activity (%)” value was 95%.

Take `COC(=O)N1CCC(N2CCC(n3c(=O)n(C(C)=O)c4ccccc43)CC2)CC1` [Example 12, 1-[1-(1-methoxycarbonylpiperidin-4-yl)-piperidin-4-yl]-3-acetyl-1,3-dihydro-2H-benzimidazol-2-one]: the “Agonist Activity (%)” value is given as 95%. Take `C=CCn1c(=O)n(C2CCN(C3CCN(C(=O)OC)CC3)CC2)c2ccccc21` [Example 2, 1-[1-(1-methoxycarbonylpiperidin-4-yl)-piperidin-4-yl]-3-(2-propenyl)-1,3-dihydro-2H-benzimidazol-2-one]: the “Agonist Activity (%)” value is on record as 96%.
